The values that follow are results of earlier work, collected in patent publication US20040209811A1, “Oral prohylactic agent against viral infection” (Chuang-Chun Chiueh, priority 2003, published 2004).

The test system of series [1] is cells. Conditions: at >0.3 μM concentration.
In series [2] the test system is enterovirus. Particulars: full prevention of infection; protected cells from viral invasion and pathological changes.
Series [3] deals with influenza viruses.

In the case of phycocyanin, in series [1], the toxicity to cells entry is “non-toxic to cells”. In series [2], the “concentration that could fully prevent enteroviral infection” value was more than 0.3 µM. Further, the “concentration found to prevent the infection of influenza viruses” value in series [3] is more than 0.04 µM.
